Key:
[1] = system: multiple myeloma (RPMI8226, MM1S, ARP-GL, CAG-GL, OPM2-GL, SKO-007-GL, U266-GL, MM1R cells); test: toxicity by alamarBlue, multiple myeloma cell lines; format: cell-based, human; settings: mean of 8 cell lines
Procedure: The toxicity of compounds 42-45 and their IC50 was determined on a panel of human tumor cell lines of multiple myeloma (RPMI8226, MM1S, MM1R, ARP-GL, CAG-GL, OPM2-GL, SKO-007-GL, U266-GL,) and lung cancer (H299-GL, H522-GL, H647-GL, A549-GL, A549-GL, HI993, H1075-GL, HI373, H17030) origin. Tumor cells were dissociated into a single-cell suspension by Trypsin/Collagenase IV treatment and 500 cells per well were aliquoted into each well of 384 microwell plates in 50 μl of RPMI medium with 10% FCS. Compounds 42-45 were dissolved in DMSO and serially diluted in RPMI medium plus 10% FCS and added (1 mM to 1 nM) to quadruplicate wells containing tumor cells. Dilutions of DMSO without compound were used as a control. After 18 hrs or 2 days, the cultures were pulsed with 6 μl of alamarBlue® (Invitrogen Inc. Grand Island, N.Y.) and incubated overnight. The alamarBlue® provides a cell growth indicator based on detection of metabolic activity. The assay system incorporates an oxidation-reduction indicator that both fluoresces and changes color in response to chemical reduction of growth medium resulting from cell growth. The fluorescence intensity was measured using a Synergy H1 Microplate Reader (Biotek Inc, Winooski, VT) and a dose-response curve established for IC50 determination.

H1975 = test: transwell migration (modified Boyden chamber, serum gradient); format: cell-based; settings: Homo sapiens, NCI-H1975, 12 hour migration, mean +/- SEM of three experiments, read-out: IC50, inhibition of transwell migration
Procedure: Migration assay: Cancer cell chemotaxis was performed towards a serum gradient in a modified Boyden chamber consisting of a cell culture insert (6.4 mm diameter, 8-μm pore polyethylene tetraphtalate membrane, [Becton Dickenson]) seated in each well of a 24-well companion plate (Becton Dickinson). Briefly, cancer cells were grown as subconfluent monolayer cultures then starved for 36 hours in serum-free M5 medium. After detachment and dissociation with 5 mM EDTA, single-cell suspensions were prepared by filtration through a 35 μm mesh cell strainer (Becton Dickinson). Cells were counted and a total of 10^5 cells suspended in serum-free medium were seeded into the upper chamber of an insert, then positioned in a 24-well plate, containing medium with or without 10% serum. […] For quantification, three randomly selected fields on the lower side of the insert were photographed at 4× and 20× magnification using computer-assisted microscopy, and analyzed with CellProfiler2.0 cell image analysis software). The migration in response to the test condition was calculated relative to the DMSO vehicle control. […]
Lung Cancer cell lines chemotaxis was performed in cell culture inserts after serum starvation and an overnight preincubation with an incremental logarithmic scale of drug concentration (ME and CME from 10^−3 to 10^−10M). […] Data are expressed as the mean+/−SEM of three independent experiments. […]

H299 = test: as above; format: cell-based; settings: Homo sapiens, 12 hour migration, mean +/- SEM of three experiments, read-out: IC50, inhibition of transwell migration
Procedure: (§1) Migration assay: Cancer cell chemotaxis was performed towards a serum gradient in a modified Boyden chamber consisting of a cell culture insert (6.4 mm diameter, 8-μm pore polyethylene tetraphtalate membrane, [Becton Dickenson]) seated in each well of a 24-well companion plate (Becton Dickinson). Briefly, cancer cells were grown as subconfluent monolayer cultures then starved for 36 hours in serum-free M5 medium. After detachment and dissociation with 5 mM EDTA, single-cell suspensions were prepared by filtration through a 35 μm mesh cell strainer (Becton Dickinson). Cells were counted and a total of 10^5 cells suspended in serum-free medium were seeded into the upper chamber of an insert, then positioned in a 24-well plate, containing medium with or without 10% serum. When used, drugs or DMSO (vehicle) were added to the medium at 0.2% in both chambers. Migration assays were carried out for 12 hours in a humidified incubator at 37° C. with 5% CO2. Cells were then fixed with 3.7% formaldehyde, permeabilized with ice cold methanol and stained with a 0.2% Crystal violet solution. Non-migratory cells on the upper side of the insert were removed with a cotton swab. For quantification, three randomly selected fields on the lower side of the insert were photographed at 4× and 20× magnification using computer-assisted microscopy, and analyzed with CellProfiler2.0 cell image analysis software). The migration in response to the test condition was calculated relative to the DMSO vehicle control.
(§2) This assay provided reproducibly robust data, allowing dose-response studies to be carried out to determine the half maximal inhibitory concentration (IC50). […] Because we noticed a mild toxicity and effects on cell proliferation in the millimolar range, experiments with CME and ME at 1 mM or more were not included for the IC50 calculation.
(§3) Lung Cancer cell lines chemotaxis was performed in cell culture inserts after serum starvation and an overnight preincubation with an incremental logarithmic scale of drug concentration (ME and CME from 10^−3 to 10^−10M). Cancer cell migration in response to a serum gradient was measured after a 12 hour-long incubation in presence of different concentrations of ME or CME in both upper and lower chamber (three wells at each dose). Cells were then fixed and stained with Crystal violet, and photographed. […] Data are expressed as the mean+/−SEM of three independent experiments. Each experiment was performed in triplicate.

A549 = test: as above; format: cell-based; settings: Homo sapiens, 12 hour migration, mean +/- SEM of three experiments, read-out: IC50, inhibition of transwell migration
Procedure: as §1, §2, §3

water solubility = format: physicochemical; settings: water with 5% methanol, aqueous with cosolvent or surfactant or cyclodextrin; in the presence of 5% methanol
MDA231BrM2a cells [2] = test: cancer cell extravasation through the blood-brain barrier after intracardiac injection; format: in vivo, mice; settings: 20 mg/kg intraperitoneally at days 0, 3 and 5; sacrificed 7 days after inoculation
Procedure: MDA231BrM2a is a human breast cancer cell line that is metastatic to the brain (Bos et al 2009). These cells stably express a triple fusion protein (thymidinekinase-GFP-luciferase) that allows detection by bioluminesce, and by immunofluorescence with anti-GFP antibodies. Cells (5×10^5 cells) were inoculated into the bloodstream of immunodeficient mice by intracardiac injection. Carboxymethyl-Migraether (cME) was administered (20 mg/kg, intraperitoneally) at days 0, 3 and 5 after injection. Mice were sacrificed 7 days after inoculation. Brains from these mice were serially sectioned (80 μm sections). Anti-GFP immunofluorescence was performed and the number of GFP(+) cells (events) per brain quantified (FIG. 1). The results establish that extravasation of these cancer cells through the blood-brain barrier (BBB) occurs during the first 7 days after inoculation. Therefore, in the experiment of FIG. 1, cME targets cells during the extravasation step.

MDA231BrM2a cells [3] = test: ex-vivo intra-brain migration assay on brain slices; format: cell-based, human; settings: 1 μM or 10 μM; 3 days
Text: After extravasation through the BBB, cancer cells adhere to and migrate on the surface of brain capillaries. Prior to the present disclosure, the permeability of the BBB to cME was unknown. To investigate the ability of cME to inhibit cancer cell migration over capillaries once the cells have infiltrated the brain, we used an ex-vivo intra-brain migration assay. Brain slices from untreated mice were placed in organotypic cultures. Each slice was placed on an inertporous membrane over cell culture medium. MDA231BrM2a cells (3×10^4 cells) were plated on top of the brain slices (FIG. 2, top). After 3 days, the cancer cells had infiltrated the brain tissue mass, migrated towards capillaries (Col. IV in FIG. 2) and migrated on the capillary network of the tissue slice (FIG. 2, bottom). […] In the presence of cME, the cancer cells remained round and on the surface of the brain slice, without migrating towards and over the vascular network (FIG. 2, bottom right).

SMILES	Estimated lethal doses (LD50) ([1]; 18 h exposure) [µM]	Estimated lethal doses (LD50) ([1]; 48 h exposure) [µM]	IC50 (H1975) [µM]	IC50 (H299) [µM]	IC50 (A549) [µM]	solubility (water solubility) [µg/mL]	reduction in the number of events (GFP(+) cells) per brain (MDA231BrM2a cells [2])	migration of cancer cells towards and over the capillary network of the brain slice (MDA231BrM2a cells [3])
CO[C@H]1/C=C/CCCCCOC/C(C)=C\[C@@H](C)[C@@H]1O [ME, migrastatin ether]	794.8	881.7	1.51 ± 0.69	8.2 ± 1.75	1.93 ± 0.41			
CO[C@H]1/C=C/CCCCCOC/C(C)=C\[C@@H](C)[C@@H]1OCC(=O)O [CME, Carboxymethyl migraether]	503.6	452.9	0.51 ± 0.42	5.02 ± 1.13	0.66 ± 0.2	200 to 300	two-fold reduction	strongly inhibited

Reference: patent US9303009B2, “Migrastatins and uses thereof” (Sloan-Kettering Institute for Cancer Research, priority 2011, dated 2016)
